According to patent publication US20060178342A1, “Hyaluronan as a cytotoxic agent, drug pre-sensitizer and chemo-sensitizer in the treatment of disease” (priority 2001, published 2006):

Key:
[1] = system: human breast cancer cells; assay: Breast cancer cell count assay, cell line not specified or pooled; format: cell-based; conditions: HA incubated 30 min, 1 h, 24 h or 3 days
Procedure: The cell suspensions were counted with an automated cell counter (ZM-2 Coulter Counter) by adding 15 mL saline+0.2 ml of cell suspension. • Cells were resuspended to a number of: […] The cell suspensions were counted with an automated cell counter (ZM-2 Coulter Counter) by adding 15 mL saline+0.2 ml of cell suspension. Results were expressed as % of no drug control which was calculated as: […]

[2] = system: Human LIM1215 colon cancer xenografts; assay: 14-week efficacy study, irinotecan ± HA in colon cancer xenografts; format: in vivo, mouse; conditions: 13.3, 26.6 or 150 mg/kg HA, IV bolus Day 1 of 14 × q7 D
Text: Human LIM1215 colon cancer xenografts were inoculated into the mammary fat pad of athymic […] nude mice. Mice were randomly distributed into eight treatment groups (8 mice per group).
The treatment regime comprised of injections on Day 1 of a 7-day cycle for duration of fourteen weeks. Primary tumor volume, animal body mass, energy levels and food consumption were monitored three times weekly.
Athymic CBA/WEHI nude female mice (Walter and Eliza Hall Research Institute, Melbourne, Australia), 6 to 8 weeks old, were maintained under specific pathogen-free conditions, with sterilized food and water available ad libitum. Each mouse received one injection containing 1×10^7 cells in 50-100 μl. […]
Any animals with a tumor volume expressed as a percentage of body weight outside 0.25±0.10 (mean±1 SD) were excluded from data analysis. […]
The experimental end-point for each animal occurred either when the animal had to be euthanized due to a high degree of disease progression or when the 14-week study had been completed. The animals were monitored three times weekly and the following criteria were established to determine whether an animal had reached the experimental end point: tumour mass is greater than 10% of the animals total body mass; the animal is metabolically stressed (i.e. losing weight); or the animal is immobilized.

[3] = system: MDA-MB 468 Breast cancer xenografts; assay: HA alone on breast cancer xenografts, metastasis, body mass and survival; format: in vivo; conditions: 12.5 mg/kg HA, three regimens; significant in 3/3 experiments
Procedure: To determine the effect of HA on tumor volume in vivo, 12.5 mg/kg of HA was administered on day 1 and 2 of a 7 day cycle for 6 cycles and 12.5 mg/kg on day 1 and 3 of 7 day cycle for 6 cycles (FIG. 9A) or 12.5 mg/kg on day 1 and 8 of 28 day cycle for 6 cycles (FIG. 9B). […] This anti-proliferative effect could be due to the degradation of the HA into apoptotic-inducing fragments and/or the microembolisation effect, which could result in tissue hypoxia and subsequent cell death.
The following table sets forth the results of the administration of HA on breast and colon cancer xenographs, metastasis, body mass and survival in vivo.

[4] = system: HCT-116; assay: Effect of HA on cell proliferation; format: cell-based, human; conditions: 3 days constant exposure, 100 nM
Procedure: (§1) The effect of HA on the proliferation of human breast and colon cancer cell lines was determined according to the methods set forth in the Table 11.

[5] = system: HT-29; assay: Effect of HA on cell proliferation; format: cell-based, human; conditions: 3 days constant exposure, 100 nM
Procedure: as §1

[6] = system: LIM 1215; assay: Effect of HA on cell proliferation; format: cell-based, human; conditions: 3 days constant exposure, 100 nM
Procedure: as §1

[7] = system: LIM 2099; assay: Effect of HA on cell proliferation; format: cell-based, human; conditions: 3 days constant exposure, 100 nM
Procedure: as §1

[8] = system: MDA MB 231; assay: Effect of HA on cell proliferation; format: cell-based, human
Procedure: as §1

[9] = system: MDA MB 435; assay: Effect of HA on cell proliferation; format: cell-based, human
Procedure: as §1

[10] = system: MDA MB 468; assay: Effect of HA on cell proliferation; format: cell-based, human
Procedure: as §1

[11] = system: SK-CO-1; assay: Effect of HA on cell proliferation; format: cell-based, human; conditions: 3 days constant exposure, 100 nM
Procedure: as §1

[12] = system: SW1222; assay: Effect of HA on cell proliferation; format: cell-based, human; conditions: 3 days constant exposure, 100 nM
Procedure: as §1

[13] = system: SW620; assay: Effect of HA on cell proliferation; format: cell-based, human; conditions: 3 days constant exposure, 100 nM
Procedure: as §1

[14] = system: ZR-75-1; assay: Effect of HA on cell proliferation; format: cell-based, human; conditions: 3 days constant exposure
Procedure: as §1

[15] = 6-week study: treatment toxicity (body mass, blood, organ mass, survival)
Text: Animals were monitored daily for GI tract upset such as diarrhea and weekly for more severe toxicity manifestations such as weight loss.
As one of the major toxicities associated with 5-FU treatment is depression of the bone marrow and subsequent drop in white blood cells it was necessary to assess any treatment associated blood toxicity. Upon anaesthetizing the animals, blood was collected from the heart or great vessels using a needle and syringe. Estimation of white blood cell number by making a 1/50 dilution of blood in mouse tenacity saline (M) and counting it on a haemocytometer. A differential blood count was performed by counting-neutrophils, lymphocytes, and erythrocytes. The total estimation of blood cell sub-populations was compared to published data for mouse blood.
The mass of each organ was calculated as a % of the overall net body weight, and compared to the organ masses of the saline only group (Group 1).

[16] = 30 min HA followed by growth for 3 days, 100 nM
[17] = 3 days constant exposure, 100 nM
[18] = 3 days constant exposure, 500 nM
[19] = 3 days constant exposure, 10 μM
[20] = 24 H HA followed by growth for 3 days, 100 nM

hyaluronan [HA]
reduction in breast cancer cell number [1]: 0-29% | disease course with HA alone [2]: progressive disease | % T/C versus saline [3]: lower % T/C | Effect of HA on cell proliferation (mean ± standard deviation) [4]: 92 ± 0 (n = 8) % of untreated control | Effect of HA on cell proliferation (mean ± standard deviation) [5]: 82 ± 14 (n = 8) % of untreated control | Effect of HA on cell proliferation (mean ± standard deviation) [6]: 89 ± 5 (n = 8) % of untreated control | Effect of HA on cell proliferation (mean ± standard deviation) [7]: 105 ± 2 (n = 16) % of untreated control | Effect of HA on cell proliferation (mean ± standard deviation) [8, 16]: 86 ± 3 (n = 8) % of untreated control | Effect of HA on cell proliferation (mean ± standard deviation) [8, 17]: 106 ± 11 (n = 20) % of untreated control | Effect of HA on cell proliferation (mean ± standard deviation) [8, 18]: 100 ± 1 (n = 8) % of untreated control | Effect of HA on cell proliferation (mean ± standard deviation) [8, 19]: 101 ± 5 (n = 8) % of untreated control | Effect of HA on cell proliferation (mean ± standard deviation) [9, 20]: 111 ± 6 (n = 8) % of untreated control | Effect of HA on cell proliferation (mean ± standard deviation) [9, 16]: 86 ± 6 (n = 12) % of untreated control | Effect of HA on cell proliferation (mean ± standard deviation) [9, 17]: 85 ± 17 (n = 16) % of untreated control | Effect of HA on cell proliferation (mean ± standard deviation) [9, 18]: 55 ± 6 (n = 8) % of untreated control | Effect of HA on cell proliferation (mean ± standard deviation) [9, 19]: 101 ± 1(n = 8) % of untreated control | Effect of HA on cell proliferation (mean ± standard deviation) [10, 20]: 84 ± 1 (n = 4) % of untreated control | Effect of HA on cell proliferation (mean ± standard deviation) [10, 16]: 97 ± 15 (n = 12) % of untreated control | Effect of HA on cell proliferation (mean ± standard deviation) [10, 17]: 99 ± 6 (n = 20) % of untreated control | Effect of HA on cell proliferation (mean ± standard deviation) [10, 18]: 95 ± 3 (n = 8) % of untreated control | Effect of HA on cell proliferation (mean ± standard deviation) [10, 19]: 99 ± 6 (n = 20) % of untreated control | Effect of HA on cell proliferation (mean ± standard deviation) [11]: 95 ± 3 (n = 8) % of untreated control | Effect of HA on cell proliferation (mean ± standard deviation) [12]: 99 ± 1 (n = 8) % of untreated control | Effect of HA on cell proliferation (mean ± standard deviation) [13]: 97 ± 1 (n = 8) % of untreated control | Effect of HA on cell proliferation (mean ± standard deviation) ([14]; 100 nM): 103 ± 4 (n = 20) % of untreated control | Effect of HA on cell proliferation (mean ± standard deviation) ([14]; 500 nM): 102 ± 1 (n = 8) % of untreated control | Effect of HA on cell proliferation (mean ± standard deviation) ([14]; 10 μM): 100 ± 3 (n = 8) % of untreated control | organ mass toxicity [15]: did not result in any dramatic toxicity | body mass / well being versus 5-FU treatment group ([15]; HA as sole agent or chemosensitizer): did not loose weight, but maintained its body mass
